Earlier results in US20050014827A1, “Synergistic medicament containing flavoring agents and having an antagonistic regenerative and/or protagonist decontamination effect” (priority 2000, published 2005).

What was measured:
reverse transcriptase = conditions: 19% ethanol
HTLV-III/LAV/HIV = conditions: 50% ethanol; 23° C.; 10 min; with and without additional protein loading
HBV = conditions: 70% isopropyl alcohol; 10 min; room temperature; serum dried onto plastic surface

For `CCO` [ethanol], the “detection of viral reverse transcriptase” value (reverse transcriptase) is given as “can no longer be detected” and the “infectiousness of the virus” value (HTLV-III/LAV/HIV) is given as “destroys the infectiousness”.

In the case of `CC(C)O` [isopropyl alcohol], the “inactivation of 10^6 HBV doses infectious towards chimpanzees” value (HBV) is listed as “inactivated”.
